# Measurements reported in ChEMBL document CHEMBL1122891, “Substituted 5H-dibenz[b,g]-1,4-oxazocines and related amino acids with antiinflammatory activity” (1985).
# What was measured:
# Type in all cases: functional
# Rattus norvegicus [1] = assay: Percent reduction in swelling of the left hind paw in rat when 40 mg/kg of dose was injected perorally which was determined in adjuvant arthritis test; conditions: route oral
# Rattus norvegicus [2] = assay: Minimum ulcerogenic dose was evaluated 24 hours after peroral administration; value may range from 100-200
# Rattus norvegicus [3] = assay: Percent reduction in swelling of the left hind paw in rat when 75 mg/kg of dose was injected perorally which was determined in adjuvant arthritis test; conditions: route oral
# Rattus norvegicus [4] = species on record: Rattus norvegicus; assay: Activity relative to fenclofenac determined in adjuvant arthritis test
# Rattus norvegicus [5] = assay: Minimum ulcerogenic dose was evaluated 24 hours after peroral administration
# Rattus norvegicus [6] = assay: Percent reduction in swelling of the left hind paw in rat determined in adjuvant arthritis test, 50 mg/kg dose perorally; conditions: route oral
# Rattus norvegicus [7] = assay: Minimum ulcerogenic dose was evaluated 24 hours after peroral administration; value may range from 25-50
# Rattus norvegicus [8] = assay: Percent reduction in swelling of the left hind paw in rat determined in adjuvant arthritis test, 25 mg/kg dose was perorally; conditions: route oral
# Rattus norvegicus [9] = assay: Minimum ulcerogenic dose was evaluated 24 hours after peroral administration; value may range from 12.5-25
# Rattus norvegicus [10] = assay: Percent reduction in swelling of the left hind paw in rat when 10 mg/kg of dose was injected perorally which was determined in adjuvant arthritis test; conditions: route oral
# Rattus norvegicus [11] = assay: Percent reduction in swelling of the left hind paw in rat when 20 mg/kg of dose was injected perorally which was determined in adjuvant arthritis test; conditions: route oral
# Rattus norvegicus [12] = assay: Minimum ulcerogenic dose was evaluated 24 hours after peroral administration; value may range from 60-120
# Rattus norvegicus [13] = assay: Minimum ulcerogenic dose was evaluated 24 hours after peroral administration; value may range from 50-100
# Rattus norvegicus [14] = assay: Percent reduction in swelling of the left hind paw in rat when 25 mg/kg of dose was injected perorally which was determined in adjuvant arthritis test; conditions: route oral
# Rattus norvegicus [15] = assay: Percent reduction in swelling of the left hind paw in rat when 100 mg/kg of dose was injected perorally which was determined in adjuvant arthritis test; conditions: route oral
# Rattus norvegicus [16] = assay: Minimum ulcerogenic dose was evaluated 24 hours after peroral administration; value may range from 400-800
# Rattus norvegicus [17] = assay: Percent reduction in swelling of the left hind paw in rat when 2 mg/kg of dose was injected perorally which was determined in adjuvant arthritis test; conditions: route oral
# Rattus norvegicus [18] = assay: Minimum ulcerogenic dose was evaluated 24 hours after peroral administration; value may range from 50-80
# Rattus norvegicus [19] = assay: Percent reduction in swelling of the left hind paw in rat when 35 mg/kg of dose was injected perorally which was determined in adjuvant arthritis test; conditions: route oral
smiles,measurement,setting,value
Cc1ccc2c(c1)CCNc1cc(C)cc(Cl)c1O2,Reduction,Rattus norvegicus [1],19%
O=C(O)Cc1ccccc1Oc1c(Cl)cccc1[N+](=O)[O-],MUD,Rattus norvegicus [2],100 mg/kg
same,Reduction,Rattus norvegicus [3],45%
same,Relative potency,Rattus norvegicus [4],2
O=C(Cc1ccccc1Oc1c(Cl)cccc1[N+](=O)[O-])OC1OC(=O)c2ccccc21 (configuration not stated),MUD,Rattus norvegicus [5],>800 mg/kg
same,Reduction,Rattus norvegicus [6],30%
same,Relative potency,Rattus norvegicus [4],0.7
Nc1cc(Br)cc(Br)c1Oc1ccccc1CC(=O)O,MUD,Rattus norvegicus [7],25 mg/kg
same,Reduction,Rattus norvegicus [8],50%
same,Relative potency,Rattus norvegicus [4],8.6
Nc1cc(Cl)cc(Cl)c1Oc1ccccc1CC(=O)O,MUD,Rattus norvegicus [9],12.5 mg/kg
same,Reduction,Rattus norvegicus [10],41%
same,Relative potency,Rattus norvegicus [4],6.8
COc1cc(Cl)cc2c1Oc1ccc(C)cc1CCN2,Reduction,Rattus norvegicus [3],1%
Cc1cccc(N(C)C)c1Oc1ccccc1CC(=O)O,MUD,Rattus norvegicus [2],100 mg/kg
same,Reduction,Rattus norvegicus [11],38%
same,Relative potency,Rattus norvegicus [4],2.1
Cc1c(N)c(Oc2ccccc2CC(=O)O)c(Cl)c(C)c1Cl,MUD,Rattus norvegicus [12],60 mg/kg
same,Reduction,Rattus norvegicus [8],4%
CNc1cc(Cl)cc(Cl)c1Oc1ccccc1CC(=O)OC,MUD,Rattus norvegicus [13],50 mg/kg
same,Reduction,Rattus norvegicus [6],36%
same,Relative potency,Rattus norvegicus [4],2.5
NC(=O)Cc1ccccc1Oc1c(Cl)cccc1[N+](=O)[O-],MUD,Rattus norvegicus [5],>800 mg/kg
same,Reduction,Rattus norvegicus [6],36%
same,Relative potency,Rattus norvegicus [4],1.1
Clc1cc(Cl)c2c(c1)NCCc1ccccc1O2,Reduction,Rattus norvegicus [14],41%
same,Relative potency,Rattus norvegicus [4],2.1
Cc1cc(Cl)c2c(c1)NCCc1ccccc1O2,Reduction,Rattus norvegicus [14],23%
CC(=O)N1CCc2ccccc2Oc2c(Cl)cc(Cl)cc21,Reduction,Rattus norvegicus [3],10%
O=[N+]([O-])c1cccc(Cl)c1Oc1ccccc1CCO,MUD,Rattus norvegicus [13],50 mg/kg
same,Reduction,Rattus norvegicus [15],37%
Cc1cc(Cl)cc(N)c1Oc1ccccc1CC(=O)O,MUD,Rattus norvegicus [7],25 mg/kg
same,Reduction,Rattus norvegicus [10],34%
same,Relative potency,Rattus norvegicus [4],5.6
Nc1cccc(Cl)c1Oc1ccccc1CC(=O)O,MUD,Rattus norvegicus [7],25 mg/kg
same,Reduction,Rattus norvegicus [8],36%
same,Relative potency,Rattus norvegicus [4],3.5
CNc1cccc(Cl)c1Oc1ccccc1CC(=O)O,MUD,Rattus norvegicus [5],<12.5 mg/kg
same,Relative potency,Rattus norvegicus [4],15
Cc1cccc(N)c1Oc1ccccc1CC(=O)O,MUD,Rattus norvegicus [16],400 mg/kg
same,Reduction,Rattus norvegicus [8],32%
same,Relative potency,Rattus norvegicus [4],1.9
Nc1c(Cl)c(Cl)cc(Cl)c1Oc1ccccc1CC(=O)O,MUD,Rattus norvegicus [13],50 mg/kg
same,Reduction,Rattus norvegicus [10],37%
same,Relative potency,Rattus norvegicus [4],11.6
CNc1cc(Cl)cc(Cl)c1Oc1ccccc1CC(=O)O,Reduction,Rattus norvegicus [17],22%
same,Relative potency,Rattus norvegicus [4],13
COC(=O)Cc1ccccc1Oc1c(N)cc(Cl)cc1Cl,MUD,Rattus norvegicus [18],50 mg/kg
same,Reduction,Rattus norvegicus [8],38%
same,Relative potency,Rattus norvegicus [4],7.5
Nc1cc(C(F)(F)F)ccc1Oc1ccccc1CC(=O)O,MUD,Rattus norvegicus [16],400 mg/kg
same,Reduction,Rattus norvegicus [15],36%
same,Relative potency,Rattus norvegicus [4],2.1
CNc1cccc(C)c1Oc1ccccc1CC(=O)O,MUD,Rattus norvegicus [7],25 mg/kg
same,Reduction,Rattus norvegicus [8],46%
same,Relative potency,Rattus norvegicus [4],6.5
Nc1ccccc1Oc1ccccc1CC(=O)O,Reduction,Rattus norvegicus [19],2%
